Consider six molecules from patent publication US8778302B2, “Procaspase 8-mediated disease targeting” (The University of British Columbia, priority 2007, dated 2014).

For data set [1], the system named is Caspase 3/7 activity in MIP/SP cells. Put plainly: Caspase 3/7 assay (Caspase-Glo), MIP/SP. In kind it is cell-based, human. As for the experimental part:
(§1) Cell viability was assessed by MTS assay (Promega) at 490 nm. […] Total cell lysates were isolated and 20 μg of total protein/sample were used in Caspase-Glo 3/7 Assay (Promega), using a 1:1 dilution of Caspase-Glo 3/7 Substrate. Relative luminescence units (RLU) was quantified using a Viktor2 1420 Multilabel counter (Perkin Elmer).

Data set [2] concerns HCT116 cells. Kind of data set: Cell viability (MTS) assay after Caspase 8 siRNA, HCT116. In kind it is cell-based, human. Conditions: HCT116, Caspase 8 siRNA+5-FU. As for the experimental part: (§2) Cell Lines: MIP101 and HCT116 (ATCC) human CRC cells were maintained in DMEM media supplemented with 1% penicillin-streptomycin, 1% kanamycin (Invitrogen) and 10% newborn calf serum at 37° C. and 5% CO2. […] MIP101 transfected with empty vector (VIIP/ZEO) and MIP101 cells stably transfected with SPARC (MIP/SP), were also supplemented with 0.01% zeocin (Invitrogen).
(§3) Cell viability was assessed by MTS assay (Promega) at 490 nm. Caspase 3/7 Assay: Cells were transiently transfected with 40 nM of Caspase 8 siRNA for 48 hours, and incubated with 1000 μM 5-FU for another 48 hours. Total cell lysates were isolated and 20 μg of total protein/sample were used in Caspase-Glo 3/7 Assay (Promega), using a 1:1 dilution of Caspase-Glo 3/7 Substrate. Relative luminescence units (RLU) was quantified using a Viktor2 1420 Multilabel counter (Perkin Elmer).

For data set [3], the system named is MIP/SP cells. Kind of data set: Cell viability (MTS) assay after Caspase 8 siRNA, MIP/SP. It counts as cell-based, human. As to conditions: Caspase 8 gene silencing, after 5-FU treatment (0-1200 μM) (FIG. 3A).
Data set [4] concerns MIP/5FU cells. Put plainly: TUNEL assay, MIP/5FU. Conditions: 5-FU treatment (FIG. 4B, C). It counts as cell-based, human. As for the experimental part:
(§4) TUNEL Assay: Cells were seeded (24-well plates) to achieve ˜60% confluence 24 hours later for transient transfection with Caspase 8 siRNA. 36 hours later, cells were incubated with 1000 μM 5-FU for 36 hours, harvested (suspension and attached cells) and fixed onto glass slides with Shandon cytospin at 2000 rpm for 10 minutes and stained as per manufacturer's instructions (Promega). The number of TUNEL-positive cells was counted and averaged from four different fields (n=4 independent experiments, with slides read independently by two individuals in a blinded fashion).

The test system of data set [5] is Caspase 8 in MIP/SP tumors. Put plainly: Caspase 8 protein activity in MIP/SP tumor xenografts. Conditions: MIP/SP tumors from animals treated with 5-FU (FIG. 6C). In kind it is in vivo, nude mice.
Method: In addition, tumor xenografts of MIP/ZEO and MIP/SP cells from nude mice treated with either 5-FU (three consecutive days) or saline, were collected after the 1st cycle of treatment and homogenized (Kinematica, POLYTRON-Aggregate). Lysates were then prepared for immunoblot or RT-PCR. […] Similarly, cells seeded on coverslips at 150,000 cells/well in a E-well plate, treated 24 hours later with 1000 μM 5-FU for 2 hours were then fixed in 2% paraformaldehyde and processed for immunofluorescence staining as previously described [27]. In both cases, α-caspase 8 (1:50, paraffin-embedded tissues; 1:100, cells on coverslips) antibody was used and incubated overnight at 4° C., and counterstained with DAPI. Zeiss Axioplan 2 Fluorescence microscope was used for image capture.
Data set [6] relates to MIP/SP cells. Kind of data set: caspase 8/9 inhibition, cell viability by MTS, MIP/SP. In kind it is cell-based, human. As for the experimental part:
(§5) caspase 8/9 Inhibition: Cells were seeded (96-well plates), and incubated 24 hours later (˜60% confluence) with 10-50 μM of Caspase 8-like inhibitor (z-IETD-fmk, Sigma) or Caspase 9-like inhibitor (z-LEHDfink•TFA, Sigma) for 30 minutes, followed by incubation with 1000 μM 5-FU for an additional 24 hours. Cell viability was assessed by MTS assay.

In data set [7] the test system is MIP/ZEO cells. Put plainly: Cell viability (MTS) assay after Caspase 8 siRNA, MIP/ZEO. In kind it is cell-based, human. As to conditions: Caspase 8 knock-down. As for the experimental part:
as §2, §3

Data set [8] concerns MIP/ZEO cells. Kind of data set: TUNEL assay, MIP/ZEO. It counts as cell-based, human. Conditions: 5-FU. As to the method:
as §4

Data set [9] deals with MIP/SP cells. Kind of data set: TUNEL assay, MIP/SP. In kind it is cell-based, human. As to the method:
as §4

The subject of data set [10] is Caspase 3/7 activity in MIP/ZEO cells. Put plainly: Caspase 3/7 assay (Caspase-Glo), MIP/ZEO. In kind it is cell-based, human. As for the experimental part:
as §1

For data set [11], the system named is Caspase 3 activation in MIP/5FU cells. Kind of data set: Caspase 3/7 assay (Caspase-Glo), MIP/5FU. It counts as cell-based, human. As to conditions: Caspase 8 siRNA or scramble control (FIG. 4A). As for the experimental part: as §3
Data set [12] concerns MIP/5FU cells. Put plainly: Cell viability (MTS) assay after Caspase 8 siRNA, MIP/5FU. In kind it is cell-based, human. As to conditions: with Caspase 8 knock-down (FIG. 3B). As to the method: as §2, §3
Data set [13] relates to MIP/ZEO cells. Put plainly: caspase 8/9 inhibition, cell viability by MTS, MIP/ZEO. In kind it is cell-based, human. As for the experimental part:
as §5

A short description of data set [14]: in vitro cytotoxicity of ABX and Taxol. In kind it is cell-based. As to conditions: Homo sapiens, A-431; A431 line.
The target in data set [15] is T1, Procaspase 8 (Homo sapiens, UniProt Q14790).
T1 construct: endogenous in cells; host or cells: MIP101-derived cells expressing SPARC fragments (MIP/NT, MIP/FS, MIP/EC)
T1 sequence (Q14790 whole entry, the tested form may be a part): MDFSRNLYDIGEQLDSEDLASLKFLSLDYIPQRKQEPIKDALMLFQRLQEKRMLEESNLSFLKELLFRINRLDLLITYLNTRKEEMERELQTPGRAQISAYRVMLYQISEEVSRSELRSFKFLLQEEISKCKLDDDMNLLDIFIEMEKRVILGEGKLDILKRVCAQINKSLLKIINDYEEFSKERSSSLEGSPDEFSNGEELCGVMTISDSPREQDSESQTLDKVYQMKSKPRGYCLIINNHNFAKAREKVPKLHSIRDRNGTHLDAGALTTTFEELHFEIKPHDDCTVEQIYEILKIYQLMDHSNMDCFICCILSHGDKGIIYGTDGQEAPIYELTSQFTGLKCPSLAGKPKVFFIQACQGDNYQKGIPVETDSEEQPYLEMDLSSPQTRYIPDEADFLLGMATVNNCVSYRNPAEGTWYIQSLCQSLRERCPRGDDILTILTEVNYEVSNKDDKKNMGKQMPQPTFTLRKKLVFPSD
Put plainly: immunoprecipitation of Procaspase 8 with truncated SPARC polypeptides. In kind it is binding. As to conditions: truncated SPARC polypeptide near amino terminus (MIP/NT), FIG. 8. As to the method:
Immunopreciptation was performed with anti-histidine tag antibody (IP: His) (See FIG. 8A) or an anti-Caspase 8 antibody (IP: Capsaase 8) (See FIG. 8B) in the presence of Procaspase 8 and truncated SPARC polypeptides comprising a sequence near the SPARC amino terminus (SEQ ID NO: 20) (MIP/NT), a sequence from the SPARC follistatin-like domain (SEQ ID NO: 22) (MIP/FS), a sequence from the SPARC extracellular domain (SEQ ID NO: 24) (MIP/EC) or a control antibody (IgG).

Data set [16] has as its target T2, interaction between Bcl-2 and Procaspase 8 (Homo sapiens, UniProt Q14790).
T2 construct: lysates were separated into nuclear, cytosolic, and membrane fractions; endogenous in cells; host or cells: MIP/5FU (MIP101 resistant to 5-FU) and MiaPaca/CPT cells
Kind of data set: co-immunoprecipitation of Bcl-2 and Procaspase 8 with exogenous SPARC. In kind it is binding. Conditions: addition of exogenous SPARC, 10 μg/ml for 72-hrs; resistant cell lines (FIG. 9C). As for the experimental part:
Cells were grown until ˜80% confluence, and lysates were separated into nuclear, cytosolic, and membrane fractions. 250 μg of individual cellular fractions were incubated with antibodies against HIS (1:100, Sigma), capsase 8 (N-terminus) (1:100, Abcam), Bcl-2 (1:100, Cell Signaling Technologies) or a non-specific anti-mouse IgG antibody as control (Cell Signaling Technologies), in PBS overnight (4° C.). Protein:Antibody mixture was then incubated with […] of Protein A:Protein G (Sigma) (1:1) beads for 4 hours (4° C.). For all complexes, beads were washed with PBS, and eluted with 2×SDS-loading buffer, and used for immunoblotting against caspase 8, HIS, or Bcl-2.
In order to determine the region of interaction between Bcl-2 and Procaspase 8, cells were also incubated with antibodies against caspase 8 targeting its C-terminus (Cell Signaling) or N-terminus (Abeam) in vitro for 24 hours at 1.5-3.0 μg prior to collecting and fractionating the cell lysates for immunoprecipitation. In addition, to assess if exogenous SPARC interferes with the interaction of procaspase 8 and Bcl-2, cells were incubated with 10 μg/ml of SPARC for 72-hrs, in the presence or absence of antibodies against SPARC (3 μg, Hematologic Technologies) for 24 hrs, prior to collection for cellular fractionation and immunoprecipitation.

The subject of data set [17] is Caspase 8 expression in MIP 101 tumor xenografts. Put plainly: Caspase 8 expression in MIP 101 mouse tumor xenografts. It counts as in vivo, NIH nude mice. As to conditions: mice administered SPARC as single agent (FIG. 6D). As to the method:
Animal Studies: Tumors harvested from xenografts from animals (NIH nude mice, 6 weeks old, Taconic Laboratories) were used for histology, RT-PCR or immunoblot. 2×10^6 MIP101 cells were injected into the left flank.
Experimental groups (2 animals/group) for this study included treatment with: SPARC, SPARC+5-FU, 5-FU only, and saline. In addition, tumor xenografts of MIP/ZEO and MIP/SP cells from nude mice treated with either 5-FU (three consecutive days) or saline, were collected after the 1st cycle of treatment and homogenized (Kinematica, POLYTRON-Aggregate). Lysates were then prepared for immunoblot or RT-PCR. All animals received care according to standard animal care protocol and guidelines. […] Similarly, cells seeded on coverslips at 150,000 cells/well in a E-well plate, treated 24 hours later with 1000 μM 5-FU for 2 hours were then fixed in 2% paraformaldehyde and processed for immunofluorescence staining as previously described. In both cases, α-caspase 8 (1:50, paraffin-embedded tissues; 1:100, cells on coverslips) antibody was used and incubated overnight at 4° C., and counterstained with DAPI. Zeiss Axioplan 2 Fluorescence microscope was used for image capture.

Where [18] appears, read: Homo sapiens, 1000 μM 5-FU for 24 hours only, read-out: decrease in cell viability.

Values after ≈ are worked out from the molar mass of the structure shown.

T2 sequence (Q14790 whole entry): as the sequence (Q14790 whole entry, the tested form may be a part) above

As for `O=c1[nH]cc(F)c(=O)[nH]1` [5-FU, 5-fluorouracil], the “Caspase 3/7 activity” value in data set [1] (MIP/SP cells, 12 hours after incubation with 5-FU) was 16397.0±2787.6 RLU; in data set [1] (MIP/SP transfected with Caspase 8 siRNA, 5-FU treated), 291.0±34.7 RLU; in [1] (control MIP/SP cells, 5-FU treated), 5501.0±800.0 RLU; in data set [10] (MIP/ZEO cells, 12 hours after incubation with 5-FU) it was 9954.0±1104.8 RLU; in [10] (MIP/ZEO, 5-FU, scramble control), 1915.0±661.3 RLU; in data set [10] (MIP/ZEO, 5-FU, transfected with Caspase 8 siRNA), 2321.3±661.3 RLU. For the same molecule, the viable cells in data set [2] came to 88.2±2.3%. The “cell viability (viable cells)” value in [3] is 97.6±1.4%. Further, the “apoptosis response (TUNEL)” value in data set [4] is reported as “did not respond to 5-FU treatment significantly”. Moreover, the “Caspase 8 protein activity in tumors” value in data set [5] is “highest”. The cytotoxicity at 1000 µM amounted to 16.8 ± 4.5% in [6] (setting [18]) and 21 ± 5.9% in data set [13] (setting [18]). For the same molecule, in data set [7] (following 5-FU treatment (FIG. 3B)), the cell viability (in general, a read-out of living cells in per cent, often relative to untreated cells) was determined as 75.5±0.5%. The viability (usually a per cent measure of how many cells are alive, often set against a control) at 1200 µM in data set [7] (Homo sapiens, 5-FU 1200 μM (FIG. 3A)) worked out at 52.1 ± 1.7%. Also, the “apoptotic cells (TUNEL)” value in data set [8] (no transfection with Caspase 8 siRNA) is reported as 12.2±0.7%; in data set [8] (transfection with Caspase 8 siRNA), 12.5±2.4%; in data set [9] (MIP/SP exposed to 5-FU, no Caspase 8 inhibition), 20.7±6.9%; in data set [9] (MIP/SP, 5-FU following Caspase 8 gene knock-down), 0.5±0.5%. Moreover, the “Caspase 3 activation” value in [11] is “No Caspase 3 activation was observed”. The “effect of 5-FU on cell viability” value in data set [12] is recorded as “remained unaffected”. Moreover, the “decrease in cell viability” value in data set [13] (5-FU-treated after pre-incubation with Caspase 8-like inhibitor) amounted to 14.0±4.6%.
Consider `CC(=O)O[C@H]1C(=O)[C@@]2(C)[C@H]([C@H](OC(=O)c3ccccc3)[C@]3(O)C[C@H](OC(=O)[C@H](O)[C@@H](NC(=O)c4ccccc4)c4ccccc4)C(C)=C1C3(C)C)[C@]1(OC(C)=O)CO[C@@H]1C[C@@H]2O` [TAX, Taxol], for which the IC50 (as a rule, the concentration needed to halve the response being measured) in [14] was found to be 0.012 µg/mL (≈ 0.0141 µM).
For “SEQ ID NO: 20: truncated SPARC polypeptide comprising a sequence near the SPARC amino terminus (APQQEALPDETEVVEETVAEVTEVSVGANPVQVEVGEFDDGAEETEEEVVA; SPARC Polypeptide Expressed in MIP/NT cells)”, in data set [15], the “interaction with Procaspase 8 (co-immunoprecipitation)” value is listed as “involves a SPARC domain which is within the amino acid sequence of SEQ ID NO: 20”.
For the molecule z-IETD-fmk, the “effect of Caspase 8-like inhibitor on 5-FU-induced decrease in cell viability” value in data set [6] (pre-incubation with inhibitor (as low as 10 μM), then 1000 μM 5-FU) is given as “prevented a significant decrease in cell viability”; in data set [13] (inhibitor 50 μM, then 5-FU), “no such effect could be demonstrated”.
For the molecule z-LEHD-fmk•TFA, the “effect of Caspase 9-like inhibitor on 5-FU-induced decrease in cell viability” value in data set [6] (inhibitor then 5-FU) and in data set [13] (inhibitor then 5-FU) was “preventing a significant decrease in cell viability” each time.

B1: SPARC: Secreted Protein, Acidic, Rich in Cysteines, a 281 amino acid glycoprotein (protein)
chain: APQQEALPDETEVVEETVAEVTEVSVGANPVQVEVGEFDDGAEETEEEVVAENPCQNHHCKHGKVCELDENNTPMCVCQDPTSCPAPIGEFEKVCSNDNKTFDSSCHFFATKCTLEGTKKGHKLHLDYIGPCKYIPPCLDSELTEFPLRMRDWLKNVLVTLYERDEDNNLLTEKQKLRVKKIHENEKRLEAGDHPVELLARDFEKNYNMYIFPVHWQFGQLDQHPIDGYLSHTELAPLRAPLIPMEHCTTRFFETCDLDNDKYIALDEWAGCFGIKQKDIDKDLVI
modifications: left off: small tags and cut ends
notes: Secreted Protein, Acidic, Rich in Cysteines, a 281 amino acid glycoprotein
In the case of B1, in [16], the “blocking of interaction between Bcl-2 and Procaspase 8” value is “can be blocked”. Also, the “Caspase 8 expression in tumor xenografts” value in data set [17] is “higher levels of Caspase 8”.
